According to patent US12016860B2, “Combination therapies with Cbl-b inhibitor compounds” (Nurix Therapeutics, Inc., priority 2021, dated 2024):

Legend:
[1] = test system: total primary human T-cells; assay: IL-2 and IFN-γ release (ELISA) from stimulated primary human T-cells; type: cell-based; conditions: primary human T-cells stimulated with anti-CD3, with and without CD28 co-stimulation; lesser degree without co-stimulation
Experimental: Cells were stimulated with plate bound anti-CD3 (right) or anti-CD3/anti-CD28 (left) in the presence or absence of the indicated concentration of compound 23. Release of IL-2 or IFN-γ were assessed by ELISA. Compound 23 inhibition of Cbl-b enhanced IL-2 and IFN-γ secretion in primary human T-cells stimulated with anti-CD3 antibodies, in both the presence and absence of CD28 co-stimulation, although to a lesser degree in the absence of co-stimulation.

CT26 tumors [2] = assay: nCounter Mouse PanCancer Immune Profiling of CT26 tumors from treated mice; type: in vivo
Excerpt: In this example, the gene expression changes induced in tumors from mice treated with compound 23 studies were investigated. To perform this assessment, the nCounter PanCancer Immune Profiling Panel was used, which is a multiplexed gene expression panel developed by NanoString Technologies that measures expression of 770 immune and cancer related genes (Eastel et al., 2019, Expert Review of Molecular Diagnostics, 19(7):591-598). This technology is a unique gene expression tool that covers many important features of the immune response in the tumor microenvironment and was used to facilitate the understanding of immune related changes in tumors treated with compound 23.
In FIG. 4A, CT26 tumors were harvested after 4 doses and after 19 doses of compound 23 or vehicle and gene expression was directly measured using the nCounter Mouse PanCancer Immune Profiling Panel. Analysis was performed using the nSolver 4.0 and the nCounter Advanced Analysis software comparing gene expression in compound 23 to vehicle treated tumors. […] Statistical significance of differences in mean cell type scores between compound 23 and vehicle treated groups was evaluated using Mann-Whitney test (*P≤0.05, **P≤0.01, and ***P≤0.001).
(§1) In FIG. 4B, CT26 tumors were harvested after 4 treatment doses and gene expression was directly measured using the nCounter Mouse PanCancer Immune Profiling Panel. Analysis was performed using the nSolver 4.0 and the nCounter Advanced Analysis software comparing gene expression in compound 23 to vehicle treated tumors. As indicated in the titles above each panel, scatter plots of individual Pathway Signature Scores of vehicle and compound 23 treated tumors are shown. Statistical significance of differences in Pathway Signature Scores between compound 23 and vehicle treated groups was evaluated using Mann-Whitney test (*P≤0.05, **P≤0.01, and ***P≤0.001).
as §1, with “FIG. 4C,” for “FIG. 4B,”, “after 19” for “after 4”

CT26 tumors [3] = assay: CT26 model, combination with anti-PD-1 antibody; type: in vivo, mice
Experimental: (§2) This example provides assays and results for treating tumor models in vivo with combinations of Cbl-b compounds and anti-PD1 antibodies as described herein. The antibody is a mouse anti-PD1 RMP1-14 antibody, useful in mouse in vivo assays as model for administration of human PD-1 axis antagonists for treatment of human cancer.
FIG. 6 provides results in three tumor models. […] Beginning on Day 10, tumor volumes were measured twice weekly.

MC38 tumors = assay: MC38 model, combination with anti-PD-1 antibody; type: in vivo, mice
Experimental: as §2
Beginning on Day 10, tumor volumes were measured twice weekly.

orthotopic 4T1 tumors [4] = assay: Orthotopic 4T1 model, combination with anti-PD-1 antibody; type: in vivo, mice
Experimental: as §2
Beginning on Day 9, tumor volumes and body weights were measured twice weekly. […] Statistical significance of differences in the number of colonies between groups was evaluated using Kruskal-Wallis one-way ANOVA with Dunn's multiple comparisons test.

orthotopic 4T1 tumors [5] = assay: Flow cytometry of tumor and blood CD8+ T-cells in 4T1-tumor-bearing mice; type: in vivo; conditions: Day 28
CT26 tumors [6] = assay: Flow cytometry of tumor-infiltrating immune cells in CT26 tumors; type: in vivo, mice
Experimental: CT26 tumors were harvested after 19 doses of compound 23 or vehicle and tumor-infiltrating immune cell density and phenotype was assessed by flow cytometry.

Raji cells [7] = assay: Raji model in SCID mice with NK cell depletion (anti-asialo-GM1); type: in vivo; conditions: p<0.0001
Experimental: Three additional groups of mice were treated in the presence of depleting antibodies for NK cells (anti-asialo-GM1).

[8] = test system: DoTc 4510 (BRCA2 mutated) cells; assay: Caspase 3/7 apoptosis Incucyte assay with olaparib, DoTc 4510; type: cell-based; conditions: vs 0.05% DMSO, combination also vs single agents p<0.0001
Experimental: BT549 (BRCA wild type) (A) and DoTc 4510 (BRCA2 mutated) (B) cells were seeded in duplicate into tissue culture treated black-sided, clear-bottom 96-well plates at 5,000^cells/well and allowed to adhere and establish for 24 h. Cells were treated with indicated concentrations of DMSO, compound 23, or Olaparib (FIGS. 13A and 13B) either alone or in combination and were labelled with 1× Essen Bioscience IncuCyte® Caspase-3/7 Green Reagent (final concentration 5 μM). Treated plates were imaged every 2 hours for 72 hours with the IncuCyte® S3 Live-Cell Analysis System. At each timepoint, one image per well was taken in both brightfield and FITC channels on the IncuCyte® S3 Live-Cell Analysis System. Images were analyzed for number of green objects per mm^2 using the IncuCyte S3 v2017A software.

Raji cells [9] = assay: Raji human non-Hodgkin's lymphoma model in SCID mice, combination with rituximab
Experimental: Female CB17 mice with severe combined immunodeficiency (SCID) were intravenously (IV) injected in the tail vein with Raji cells on Day 0 and treated from Day 5 to Day 37 by administration of either: vehicle (0.5% methylcellulose, 0.2% Polysorbate 80 in deionized water+1 eq HCl) daily, orally (PO) or compound 23 at 30 mg/kg daily, PO. Anti-CD20 antibody (rituximab) at 20 mg/kg was intraperitoneally (IP) administered on Day 5, 10, and 15, either alone or in combination with compound 23 at 30 mg/kg daily, PO.

[10] = single agents vs vehicle, combination vs vehicle or either single agent
[11] = blood of 4T1-tumor-bearing mice

## C[C@H]1CCCN(Cc2cc3c(c(C(F)(F)F)c2)CN(c2cccc([C@]4(c5nncn5C)C[C@@H](C)C4)c2)C3=O)C1 [compound 23]
[1]
  IFN-γ secretion: enhanced
  IL-2 secretion: enhanced
CT26 tumors [2]; after 4 doses
  T-cell, B cell, NK cell and adaptive immune function pathway scores: not significant
  gene expression in innate immune signaling pathways (dendritic cell function, macrophage function, chemokine receptors and pathways): significant gene expression changes
CT26 tumors [2]; after 4 doses, 30 mg/kg daily PO, vs vehicle, P=0.1061
  cytotoxic cell infiltration score: clear trend of increased infiltration
CT26 tumors [2]; after 4 doses, 30 mg/kg daily PO, vs vehicle, P=0.6679
  infiltration of tumor infiltrating lymphocytes (TIL) score: clear trend of increased infiltration
CT26 tumors [2]; after 4 doses, 30 mg/kg daily PO, vs vehicle, P=0.7551
  T-cell infiltration score: clear trend of increased infiltration
CT26 tumors [2]; after 19 doses
  immune related pathway scores: significantly enhanced function
CT26 tumors [2]; after 19 doses PO, vs vehicle, P=0.0002
  cytotoxic cell infiltration score: significant increases
CT26 tumors [2]; after 19 doses PO, vs vehicle, P=0.0044
  TIL infiltration score: significant increases
CT26 tumors [2]; after 19 doses PO, vs vehicle, P=0.0098
  T-cell infiltration score: significant increases
CT26 tumors [3]
  interaction with PD-1 antibody blockade: synergizes
CT26 tumors [3]; compared to vehicle controls, compound 23 30 mg/kg daily PO, anti-PD-1 10 mg/kg twice weekly IP
  TGI: 62%
CT26 tumors [3]; compound 23 30 mg/kg daily PO
  tumor volume compared to vehicle controls: significantly reduced tumor volume
CT26 tumors [3]; compound 23 30 mg/kg daily PO, anti-PD-1 10 mg/kg twice weekly IP, controls 27 days
  median survival time: 38 days
MC38 tumors
  interaction with PD-1 antibody blockade: synergizes
MC38 tumors; [10]
  primary tumor volume: significantly smaller primary tumors
Orthotopic 4T1 tumors [4]
  interaction with PD-1 antibody blockade: synergizes
Orthotopic 4T1 tumors [4]; lungs harvested Day 28, single agents vs vehicle, combination vs vehicle or either single agent
  metastatic lung tumor burden: reduced metastatic lung tumor burden
Orthotopic 4T1 tumors [4]; [10]
  primary tumor volume: significantly smaller primary tumors
Orthotopic 4T1 tumors [5]; 4T1 tumors, 30 mg/kg daily PO
  frequency of tumor gp70 antigen-specific CD8+ T-cells (AH1 Dextramer+CD8+): increased
  frequency of tumor gp70 antigen-specific CD8+ T-cells with exhaustion phenotype (PD-1+ LAG3+): decreased
Orthotopic 4T1 tumors [5]; [11]
  frequency of circulating CD8+ T-cells with activated phenotype (PD-1+): increased
  frequency of circulating CD8+ T-cells with memory phenotype (CD44+CD27+CD127+): increased
CT26 tumors [6]; 19 doses
  CD8+ T-cells to Tregs ratio: increased
  CD8+ effector T-cells (PD1+) to Tregs ratio: increased
  frequency of CD8+ T-cells that express the activation marker CD29: increased
  frequency of total CD3+ T-cells as a percentage of CD45+ leukocytes: increased
  frequency of total CD8+ T-cells as a percentage of CD45+ leukocytes: increased
  frequency of tumor-infiltrating NK cells with cytotoxic phenotype (Granzyme+): increased
  number of total CD8+ T-cells per gram of tumor: increased
CT26 tumors [6]; 19 doses 30 mg/kg daily PO
  number of tumor-infiltrating leukocytes (TIL) per gram of tumor: increased
Raji cells [7]
  effect of NK cell depletion on activity (survival): abrogates
[8]
  tumor cell apoptosis (caspase 3/7): did not significantly increase tumor cell apoptosis
Raji cells [9]; compound 23 30 mg/kg daily PO, rituximab 20 mg/kg IP Day 5, 10, 15, p<0.0001
  survival compared to untreated mice: significantly higher
Raji cells [9]; p<0.0001
  survival compared to mice treated with the combination of compound 23 and rituximab: significantly lower
